Source: patent US5968907A (priority 1997, dated 1999)

Key:
[1] = target: heat-labile enterotoxin from E. coli (Escherichia coli, UniProt P0CK94); assay type: binding; conditions: at the concentration employed in the assay
cholera toxin = cholera toxin (Vibrio cholerae serotype O1, UniProt P01556); assay: biochemical; conditions: read-out: inhibition of binding of cholera toxin to ganglioside GD1b
CFA I pili = CFA I pili (Escherichia coli, UniProt P0CK93+P25734); assay: biochemical; conditions: read-out: inhibition of CFA I pili binding to glycophorin
Chain of CFA I pili (P0CK93 24-170): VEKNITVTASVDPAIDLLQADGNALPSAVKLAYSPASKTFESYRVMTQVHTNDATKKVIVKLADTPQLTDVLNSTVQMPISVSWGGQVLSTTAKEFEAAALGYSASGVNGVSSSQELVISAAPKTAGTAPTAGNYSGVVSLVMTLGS
Chain of CFA I pili (P25734 23-360): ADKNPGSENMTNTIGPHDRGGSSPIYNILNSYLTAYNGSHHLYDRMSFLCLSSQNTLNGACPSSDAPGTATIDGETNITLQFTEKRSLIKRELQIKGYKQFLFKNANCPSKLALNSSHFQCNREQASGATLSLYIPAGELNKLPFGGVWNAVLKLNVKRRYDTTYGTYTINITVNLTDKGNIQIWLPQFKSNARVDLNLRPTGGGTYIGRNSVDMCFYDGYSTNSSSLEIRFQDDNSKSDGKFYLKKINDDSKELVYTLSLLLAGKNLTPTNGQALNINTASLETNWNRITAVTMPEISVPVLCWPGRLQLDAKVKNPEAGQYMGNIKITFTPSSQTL

Chain of heat-labile enterotoxin from E. coli (P0CK94 whole entry, looked up): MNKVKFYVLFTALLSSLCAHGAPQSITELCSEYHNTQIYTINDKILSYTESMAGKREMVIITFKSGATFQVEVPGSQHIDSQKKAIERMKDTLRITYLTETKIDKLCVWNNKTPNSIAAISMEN
Chain of cholera toxin (P01556 22-124 limits assumed): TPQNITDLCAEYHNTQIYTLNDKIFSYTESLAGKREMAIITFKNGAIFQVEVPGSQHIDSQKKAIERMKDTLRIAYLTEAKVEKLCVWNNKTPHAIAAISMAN

Row | SMILES | inhibition of binding of heat-labile enterotoxin to ganglioside GD1b [1] | inhibition at 1000 µg/mL (cholera toxin) | inhibition at 1000 µg/mL (CFA I pili)
1 | O=C(O)CCNC1CCCC1S[C@@H]1O[C@H](CO)[C@H](O)[C@H](O)[C@H]1O (stereo partly drawn) [Example F1, Nβ-[2-(1-Thio-β-D-galactopyranosyl)cyclopent-1-yl]-β-alanin] | at least 20% | < 20% | –
2 | O=C(O)CNC1CCCC1S[C@@H]1O[C@H](CO)[C@H](O)[C@H](O)[C@H]1O (stereo partly drawn) [Example E1, Nα-[2-(1-Thio-β-D-galactopyranosyl)cyclopent-1-yl]glycine] | at least 20% | ≥ 20% | –
3 | NC1CCCCC(S[C@@H]2O[C@H](CO)[C@H](O)[C@H](O)[C@H]2O)C1 (stereo partly drawn) [Example B5, 3-Aminocyclohept-1-yl 1-Thio-β-D-galactopyranoside] | – | – | 13 to 71%
4 | O=C(O)[C@H](Cc1c[nH]cn1)NC1CCCCC(S[C@@H]2O[C@H](CO)[C@H](O)[C@H](O)[C@H]2O)C1 (stereo partly drawn) [Example H5, Nα-[3-(1-Thio-β-D-galactopyranosyl)cyclohept-1-yl]-L-histidine] | – | < 20% | 13 to 71%
5 | O=C(O)[C@H](Cc1c[nH]cn1)NC1CCC(S[C@@H]2O[C@H](CO)[C@H](O)[C@H](O)[C@H]2O)C1 (stereo partly drawn) [Example H7, Nα-[3-(1-Thio-β-D-galactopyranosyl)cyclopent-1-yl]-L-histidine] | – | – | 13 to 71%
6 | CC(C)C[C@H](NC1CCCCC1S[C@@H]1O[C@H](CO)[C@H](O)[C@H](O)[C@H]1O)C(=O)O (stereo partly drawn) [Example G2, Nα-[2-(1-Thio-β-D-galactopyranosyl)cyclohex-1-yl]-L-leucine] | < 20% | ≥ 20% | –
7 | CC1(C)CC(N[C@@H](Cc2c[nH]cn2)C(=O)O)CC1S[C@@H]1O[C@H](CO)[C@H](O)[C@H](O)[C@H]1O (stereo partly drawn) [Example H6, Nα-[4,4-Dimethyl-3-(1-thio-β-D-galactopyranosyl)-cyclopent-1-yl]-L-histidine] | – | – | 13 to 71%
8 | OC[C@H]1O[C@@H](SC2CCCC2O)[C@H](O)[C@@H](O)[C@H]1O (stereo partly drawn) [Example A1, 2-Hydroxycyclopent-1-yl 1-Thio-β-D-galactopyranoside] | at least 20% | < 20% | –
9 | NC1CCC(S[C@@H]2O[C@H](CO)[C@H](O)[C@H](O)[C@H]2O)C1 (stereo partly drawn) [Example B7, 3-Aminocyclopent-1-yl 1-Thio-β-D-galactopyranoside] | at least 20% | ≥ 20% | –
10 | CC1(C)CCC(N[C@@H](CCCNC(=N)N)C(=O)O)CC1S[C@@H]1O[C@H](CO)[C@H](O)[C@H](O)[C@H]1O (stereo partly drawn) [Example J9, Nα-[4,4-Dimethyl-3-(1-thio-β-D-galactopyranosyl)-cyclohex-1-yl]-L-arginine] | – | < 20% | 13 to 71%
11 | CC(C)C[C@H](NC1CCCCC(S[C@@H]2O[C@H](CO)[C@H](O)[C@H](O)[C@H]2O)C1)C(=O)O (stereo partly drawn) [Example G5, Nα-[1-(1-Thio-β-D-galactopyranosyl)cyclohept-3-yl]-L,Ieucine] | at least 20% | ≥ 20% | –
12 | OC[C@H]1O[C@@H](SCC2C3CCC(C3)C2O)[C@H](O)[C@@H](O)[C@H]1O (stereo partly drawn) [Example A4, (3-Hydroxynorborn-2-yl)methyl 1-Thio-β-D-galactopyranoside] | at least 20% | < 20% | –
13 | O=C(O)c1ccccc1C(=O)NC1CCCCC(S[C@@H]2O[C@H](CO)[C@H](O)[C@H](O)[C@H]2O)C1 (stereo partly shown) [Example D5, 3-(2-Carboxybenzamido)cyclohept-1-yl 1-Thio-βD-galactopyranoside] | at least 20% | ≥ 20% | –
14 | O=C(O)CCNC1CCC(S[C@@H]2O[C@H](CO)[C@H](O)[C@H](O)[C@H]2O)C1 (stereo partly drawn) [Example F7, N-β-[3-(1-Thio-β-D-galactopyranosyl)cyclopent-1-yI]-β-alanine] | at least 20% | < 20% | –
15 | CC(=O)NC1CCCC(S[C@@H]2O[C@H](CO)[C@H](O)[C@H](O)[C@H]2O)C1 (stereo partly drawn) [Example C10, 3-Acetamidocyclohexyl 1-Thio-β-D-galactopyranoside] | < 20% | ≥ 20% | –
16 | NC1C2CCC(C2)C1CS[C@@H]1O[C@H](CO)[C@H](O)[C@H](O)[C@H]1O (stereo partly drawn) [Example B4, (3-Aminonorborn-2-yl)methyl 1-Thio-β-D-galactopyranoside] | at least 20% | < 20% | –
17 | O=C(O)CNC1CCCCC1S[C@@H]1O[C@H](CO)[C@H](O)[C@H](O)[C@H]1O (stereo partly drawn) [Example E2, Nα-[2-(1-Thio-β-D-galactopyranosyl)cyclohex-1-yl]gIycine] | at least 20% | – | –
18 | CC(=O)NC1CCCCC1S[C@@H]1O[C@H](CO)[C@H](O)[C@H](O)[C@H]1O (stereo partly drawn) [Example C2, 2-Acetamidocyclohex-1-yl 1-Thio-β-D-galactopyranoside] | at least 20% | – | –

Row | SMILES | inhibition of binding of heat-labile enterotoxin to ganglioside GD1b [1] | inhibition at 1000 µg/mL (cholera toxin) | inhibition at 1000 µg/mL (CFA I pili)
19 | CC1(C)CCC(S[C@@H]2O[C@H](CO)[C@H](O)[C@H](O)[C@H]2O)CC1NCCC(=O)O (stereo partly drawn) [Example F11, N-β-[5-(1-Thio-α-D-galactopyranosyl)-2,2-dimethylcyclohex-1-yl]-β-alanine] | at least 20% | – | –
20 | CC1(C)CCC(S[C@@H]2O[C@H](CO)[C@H](O)[C@H](O)[C@H]2O)CC1NCC(=O)O (stereo partly drawn) [Example E11, Nα-[5-(1-Thio-β-D-galactopyranosyl)-2 ,2-dimethylcyclohex-1-yl]glycine] | at least 20% | – | –
21 | O=C(O)[C@H](Cc1c[nH]c2ccccc12)NC1CCCCC(S[C@@H]2O[C@H](CO)[C@H](O)[C@H](O)[C@H]2O)C1 (stereo partly drawn) [Example I5, Nα-[3-(1-Thio-β-D-galactopyranosyl)cyclohept-1-yl]-L-tryptophan] | at least 20% | ≥ 20% | –
22 | NC1CCCC1S[C@@H]1O[C@H](CO)[C@H](O)[C@H](O)[C@H]1O (stereo partly drawn) [Example B1, 2-Aminocyclopent-1-yl 1-Thio-β-D-galactopyranoside] | at least 20% | < 20% | –
23 | OC[C@H]1O[C@@H](SC2CCCC(O)C2)[C@H](O)[C@@H](O)[C@H]1O (stereo partly drawn) [Example A10, 3-Hydroxycyclohex-1-yl 1-Thio-β-D-galactopyranoside] | at least 20% | < 20% | –
24 | NC1CCCC(S[C@@H]2O[C@H](CO)[C@H](O)[C@H](O)[C@H]2O)C1 (stereo partly drawn) [Example B10, 3-Aminocyclohex-1-yl 1-Thio-β-D-galactopyranoside] | at least 20% | < 20% | –
25 | O=C(O)CCNC1CCCCC1S[C@@H]1O[C@H](CO)[C@H](O)[C@H](O)[C@H]1O (stereo partly drawn) [Example F2, Nβ-[2-(1-Thio-β-D-galactopyranosyl)cyclohex-1-yl]-β-alanine] | at least 20% | – | –
26 | CC1(C)CCC(S[C@@H]2O[C@H](CO)[C@H](O)[C@H](O)[C@H]2O)CC1N (stereo partly drawn) [Example B11, 3-Amino-4,4-dimethylcyclohex-1-yl 1-Thio-β-D-galactopyranoside] | at least 20% | – | –
27 | CC(=O)NC1CCCCC(S[C@@H]2O[C@H](CO)[C@H](O)[C@H](O)[C@H]2O)C1 (stereo partly drawn) [Example C5, 3-Acetamidocyclohept-1-yl 1-Thio-β-D-galactopyranoside] | at least 20% | ≥ 20% | –
28 | OC[C@H]1O[C@@H](SC2CCC(O)C2)[C@H](O)[C@@H](O)[C@H]1O (stereo partly drawn) [Example A7, 3-Hydroxycyclopent-1-yl 1-Thio-β-D-galactopyranoside] | < 20% | < 20% | –
29 | O=C(O)c1ccccc1C(=O)NC1C2CCC(C2)C1CS[C@@H]1O[C@H](CO)[C@H](O)[C@H](O)[C@H]1O (stereo partly drawn) [Example D4, [3-(Carboxybenzamido)norborn-2-yl]methyl 1-Thio-β-D-galactopyranoside] | at least 20% | – | –
30 | O=C(O)CCNC1CCCC(S[C@@H]2O[C@H](CO)[C@H](O)[C@H](O)[C@H]2O)C1 (stereo partly drawn) [Example F10, Nβ-[3-(1-Thio-β-D-galactopyranosyl)cyclohex-1-yl]-β-alanine] | at least 20% | < 20% | –
31 | CC(=O)NC1CCC(S[C@@H]2O[C@H](CO)[C@H](O)[C@H](O)[C@H]2O)C1 (stereo partly drawn) [Example C7, 3-Acetamidocyclopent-1-yl 1-Thio-β-D-galactopyranoside] | at least 20% | ≥ 20% | –
32 | O=C(O)CCNC1CCCCC(S[C@@H]2O[C@H](CO)[C@H](O)[C@H](O)[C@H]2O)C1 (stereo partly drawn) [Example F5, Nβ-[3-(1-Thio-β-D-galactopyranosyl)cyclohept-1-yl]-β-alanine] | at least 20% | < 20% | –
33 | N=C(N)NCCC[C@H](NC1CCC(S[C@@H]2O[C@H](CO)[C@H](O)[C@H](O)[C@H]2O)C1)C(=O)O (stereo partly drawn) [Example J7, Nα-[3-(1-Thio-β-D-galactopyranosyl)cyclopent-1-yl]-L-arginine] | at least 20% | < 20% | –
34 | O=C(O)c1ccccc1C(=O)NC1CCCCC1S[C@@H]1O[C@H](CO)[C@H](O)[C@H](O)[C@H]1O (stereo partly drawn) [Example D2, 2-(2-Carboxybenzamido)cyclohex-1-yl 1-Thio-β-D-galactopyranoside] | < 20% | – | –
35 | OC[C@H]1O[C@@H](SC2CCCCC2O)[C@H](O)[C@@H](O)[C@H]1O (stereo partly drawn) [Example A2, 2-Hydroxycyclohex-1-yl 1-Thio-β-D-galactopyranoside] | < 20% | – | –
